Assay [1] is filed under the species Rattus norvegicus. Description: Renoprotective activity in 1% ethylene glycol-treated Rattus norvegicus Sprague-Dawley (rat) kidney assessed as decrease in oxalate excretion in urine at 4 mg/day after 14 days (reference value: 4.07 +/- 0.05 uM). The format is functional.
Assay [2] has as its system Rattus norvegicus. Description: Downregulation of OPN expression in 1% ethylene glycol-treated Rattus norvegicus Sprague-Dawley (rat) kidney at 0.4 mg/day, po after 14 days by ELISA (reference value: 75 +/- 13.5 %). The format is functional. (An ELISA detects its analyte on a solid surface through an enzyme-linked reagent.)
For assay [3], the system named is Rattus norvegicus. Description: Downregulation of OPN expression in 1% ethylene glycol-treated Rattus norvegicus Sprague-Dawley (rat) kidney at 2 mg/day, po after 14 days by ELISA (reference value: 75 +/- 13.5 %). It is filed as functional.
The species named for assay [4] is Rattus norvegicus. Briefly: Renoprotective activity in Rattus norvegicus Sprague-Dawley (rat) kidney assessed as decrease in oxalate excretion in urine at 4 mg/day after 14 days in presence of water (reference value: 1.11 +/- 0.06 uM). The format is functional.
The test system of assay [5] is Rattus norvegicus. Briefly: Downregulation of OPN expression in 1% ethylene glycol-treated Rattus norvegicus Sprague-Dawley (rat) kidney at 0.8 mg/day, po after 14 days by ELISA (reference value: 75 +/- 13.5 %). The format is functional.
In assay [6] the test system is Rattus norvegicus. Briefly: Downregulation of OPN expression in 1% ethylene glycol-treated Rattus norvegicus Sprague-Dawley (rat) kidney at 3 mg/day, po after 14 days by ELISA (reference value: 75 +/- 13.5 %). The format is functional.
For assay [7], the species on record is Rattus norvegicus. Description: Renoprotective activity in 1% ethylene glycol-treated Rattus norvegicus Sprague-Dawley (rat) kidney assessed as decrease in oxalate excretion in urine at 0.8 mg/day after 14 days (reference value: 4.07 +/- 0.05 uM). It is filed as functional.
For assay [8], the system named is Rattus norvegicus. Briefly: Downregulation of OPN expression in 1% ethylene glycol-treated Rattus norvegicus Sprague-Dawley (rat) kidney at 4 mg/day, po after 14 days by ELISA (reference value: 75 +/- 13.5 %). It is filed as functional.
The subject of assay [9] is Rattus norvegicus. Briefly: Downregulation of OPN expression in 1% ethylene glycol-treated po dosed Rattus norvegicus Sprague-Dawley (rat) kidney at 0.4 mg/day, po after 14 days by ELISA. It is filed as functional, organism-based.
The species named for assay [10] is Rattus norvegicus. Briefly: Renoprotective activity in 1% ethylene glycol-treated Rattus norvegicus Sprague-Dawley (rat) kidney assessed as decrease in oxalate excretion in urine at 3 mg/day after 14 days (reference value: 4.07 +/- 0.05 uM). It is filed as functional.
The species entered for assay [11] is Rattus norvegicus. Description: Renoprotective activity in 1% ethylene glycol-treated Rattus norvegicus Sprague-Dawley (rat) kidney assessed as decrease in oxalate excretion in urine at 2 mg/day after 14 days (reference value: 4.07 +/- 0.05 uM). The format is functional.
Assay [12] relates to Rattus norvegicus. Briefly: Downregulation of OPN expression in Rattus norvegicus Sprague-Dawley (rat) kidney at 0.4 mg/day, po after 14 days by ELISA in presence of water (reference value: 10 +/- 3 %). The format is functional.
For assay [13], the species on record is Rattus norvegicus. Description: Renoprotective activity in 1% ethylene glycol-treated Rattus norvegicus Sprague-Dawley (rat) kidney assessed as decrease in oxalate excretion in urine at 0.4 mg/day after 14 days (reference value: 4.07 +/- 0.05 uM). It is filed as functional.

The structures appear in SMILES notation.

As to `CC1=CC(=O)c2ccccc2C1=O` [MENADIONE], the Activity was 1.49 µM in the assay filed under Rattus norvegicus [1]; 70% in the assay with Rattus norvegicus [2]; 35% in the assay on Rattus norvegicus [3]; 1.02 µM in the assay filed under Rattus norvegicus [4]; 55% in the assay with Rattus norvegicus [5]; 30% in the assay on Rattus norvegicus [6]. Besides, the Activity in the assay filed under Rattus norvegicus [7] is 3.04 µM; in the assay with Rattus norvegicus [8] it was 20%; in the assay on Rattus norvegicus [9], “Dose-dependent effect”; in the assay listed under Rattus norvegicus [10] it was 2.01 µM; in the assay listed under Rattus norvegicus [11] it was 2.55 µM; in the assay with Rattus norvegicus [12] it was 11%. Besides, the Activity in the assay listed under Rattus norvegicus [13] stood at 3.44 µM.

(Values after ChEMBL document CHEMBL3046064, “Expression of OPN in rat kidney with different doses of vitamin K3 injection” (2007).)
